Experimental data from patent US7569530B1, “Antimicrobial compositions, products and methods employing same” (The Procter & Gamble Company, priority 2003, dated 2009).

Assays:
COX-2 = target: T1, COX-2 (Homo sapiens, UniProt P35354); test: In vitro cycloxygenase enzyme inhibition; assay type: biochemical; settings: treatment sample at pH 3.0
T1 sequence (P35354 18-604): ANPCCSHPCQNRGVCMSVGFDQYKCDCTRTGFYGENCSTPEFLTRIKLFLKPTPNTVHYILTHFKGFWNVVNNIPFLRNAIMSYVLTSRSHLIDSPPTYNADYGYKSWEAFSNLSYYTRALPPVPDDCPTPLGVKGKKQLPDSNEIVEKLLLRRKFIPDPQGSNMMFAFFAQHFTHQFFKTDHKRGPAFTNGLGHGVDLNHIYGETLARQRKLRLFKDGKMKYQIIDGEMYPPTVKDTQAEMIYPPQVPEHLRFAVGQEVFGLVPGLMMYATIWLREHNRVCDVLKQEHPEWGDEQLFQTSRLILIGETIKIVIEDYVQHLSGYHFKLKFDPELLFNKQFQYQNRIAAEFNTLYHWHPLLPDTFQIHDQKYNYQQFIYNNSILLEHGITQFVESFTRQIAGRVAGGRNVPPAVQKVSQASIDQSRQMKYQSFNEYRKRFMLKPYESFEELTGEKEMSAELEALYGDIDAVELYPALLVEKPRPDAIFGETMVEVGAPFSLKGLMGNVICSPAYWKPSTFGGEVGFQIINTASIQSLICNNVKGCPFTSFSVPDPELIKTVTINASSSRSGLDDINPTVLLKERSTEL
Source text: (§1) In vitro studies of the present invention and its key components have been conducted to assess the efficacy of the claimed compositions in inhibiting the cycloxygenase (COX) 1 and 2 enzymes. Said enzymes are adapted to convert arachidonic acid in cell membranes to prostaglandin, a messenger agent that conveys a signal to the cells to increase and enhance their inflammatory response. […] The results of this in vitro study have been documented in the below-listed chart.

COX-1 = COX-1 (Homo sapiens, UniProt P23219); test: In vitro cycloxygenase enzyme inhibition; assay type: biochemical; settings: treatment sample at pH 3.0
Source text: as §1

Sequence of COX-1 (P23219 24-599): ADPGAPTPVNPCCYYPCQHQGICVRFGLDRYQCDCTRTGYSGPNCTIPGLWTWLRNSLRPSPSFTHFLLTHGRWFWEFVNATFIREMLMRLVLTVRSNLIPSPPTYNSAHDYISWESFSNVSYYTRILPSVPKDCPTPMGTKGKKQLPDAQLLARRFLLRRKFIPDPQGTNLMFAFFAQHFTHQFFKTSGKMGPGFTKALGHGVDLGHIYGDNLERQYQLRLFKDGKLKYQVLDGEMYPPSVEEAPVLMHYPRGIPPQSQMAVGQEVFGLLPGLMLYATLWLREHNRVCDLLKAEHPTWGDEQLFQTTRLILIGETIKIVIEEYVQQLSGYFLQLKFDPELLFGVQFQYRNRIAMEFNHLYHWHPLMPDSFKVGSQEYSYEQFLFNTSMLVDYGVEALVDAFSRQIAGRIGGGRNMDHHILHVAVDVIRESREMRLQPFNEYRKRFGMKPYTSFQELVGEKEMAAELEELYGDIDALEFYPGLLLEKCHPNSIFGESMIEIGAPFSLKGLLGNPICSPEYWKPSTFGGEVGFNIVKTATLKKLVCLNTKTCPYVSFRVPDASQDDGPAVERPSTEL

Row | Compound | % of Initial Enzyme Activity COX-2 (COX-2) [%] | % of Initial Enzyme Activity COX-1 (COX-1) [%]
1 | O=C1CC[C@@H](C(=O)O)N1 [B, Pyroglutamic Acid] | 92 | 100
2 | O=C(O)CC(O)(CC(=O)O)C(=O)O [C, Citric Acid] | 100 | 94
3 | Octyl Glyceryl Sulfonate | 95 | 55
